Reference: publication PMC2922946 (Bioorganic & medicinal chemistry, 2010)
Where a SMILES comes first, the peptide text is derived from it. The star is where a group is joined. Boc = CC(C)(C)OC(=O)*

Tests used:
Hdm2–p53 complex = Hdm2–p53 complex (Homo sapiens, UniProt Q00987); test: Competitive ELISA, Hdm2–p53 inhibition; format: biochemical; conditions: for % Inhibition at 560 μM: ELISA, Hdm2 (1.5 μM), peptide 560 μM
Hdmx–p53 complex = biological target: T1, Hdmx–p53 complex (Homo sapiens, UniProt O15151); test: Competitive ELISA, Hdmx–p53 inhibition; format: biochemical; conditions: for % inhibition at 320 μM / activity against the Hdmx–p53 complex (in words): ELISA; for % inhibition at 320 μM: Hdmx (200 nM), peptide 320 μM
T1 sequence (O15151 1-189): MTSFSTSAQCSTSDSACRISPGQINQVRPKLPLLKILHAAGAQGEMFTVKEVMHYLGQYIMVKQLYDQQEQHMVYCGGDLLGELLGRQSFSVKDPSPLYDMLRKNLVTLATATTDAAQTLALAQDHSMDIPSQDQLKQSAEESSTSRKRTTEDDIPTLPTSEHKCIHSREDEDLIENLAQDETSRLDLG

Sequence of Hdm2–p53 complex (Q00987 1-188, one chain of several): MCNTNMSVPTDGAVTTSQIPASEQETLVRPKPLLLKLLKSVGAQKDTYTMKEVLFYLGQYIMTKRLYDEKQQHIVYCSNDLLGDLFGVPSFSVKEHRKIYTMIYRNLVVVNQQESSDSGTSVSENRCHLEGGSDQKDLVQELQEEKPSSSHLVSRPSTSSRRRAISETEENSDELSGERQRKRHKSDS

Compound: CC[C@H](C)[C@@H]1NC(=O)[C@H](C)NC(=O)[C@H](C(C)C)NC(=O)[C@H](Cc2ccc(O)cc2)NC(=O)[C@H](Cc2ccc(O)cc2)NC(=O)[C@H](Cc2ccccc2)NC1=O [Compound 3, c-(AIFYYV)] (cyclo(AIFYYV))
- level of activity lower than that of the decapeptide control (Hdm2–p53 complex; Hdm2–p53 ELISA, versus control ETFSDLWKLL): approximately 13 fold
- antagonism of the Hdmx–p53 complex (Hdmx–p53 complex; wide range of concentrations (up to 1 mM)): did not antagonize

Compound: CC(C)(C)OC(=O)N[C@@H](CCCNC(=N)N)C(=O)N[C@@H](Cc1c[nH]c2ccccc12)C(=O)N[C@@H](Cc1ccccc1)C(N)=O [Compound 5a, Boc–RWF–NH2] (Boc-Arg-Trp-Phe-NH2)
- % inhibition at 320 μM (Hdmx–p53 complex): No Inhibition

Compound: CC(C)C[C@@H]1NC(=O)[C@H](CC(=O)O)NC(=O)[C@H](C)NC(=O)[C@H](Cc2ccccc2)NC(=O)[C@H](Cc2c[nH]c3ccccc23)NC(=O)[C@H](CCCNC(=N)N)NC1=O [Compound 8, c-(ADLRWF)] (cyclo(ADLRWF))
- inhibition at 320 µM (Hdmx–p53 complex; read-out: % inhibition at 320 μM): 12 ± 1%

Compound: CC(C)CNC(=O)[C@H](Cc1ccccc1)NC(=O)[C@H](Cc1c[nH]c2ccccc12)NC(=O)[C@H](CCCNC(=N)N)NC(=O)OCc1ccccc1 [Compound 12F]
- activity against Hdm2–p53 complex (Hdm2–p53 complex; concentration not given): no activity

Compound: Boc-DLRWF-NH2 [Compound 7a]
- % inhibition at 320 μM (Hdmx–p53 complex): No Inhibition

Compound: Boc–DLRWF–N(CH2)5 [Compound 7b]
- activity against the Hdmx–p53 complex (in words) (Hdmx–p53 complex): dramatic reduction of activity
- % inhibition at 320 μM (Hdmx–p53 complex): 13 ± 1%

Compound: Boc–FYYV–N(CH2)5 [Compound 2a]
- % Inhibition at 560 μM (Hdm2–p53 complex): No Inhibition
- activity toward Hdm2–p53 complex (Hdm2–p53 complex; at concentrations of up to 560 μM): no activity

Compound: Boc–IFYYV–N(CH2)5 [Compound 2b]
- % Inhibition at 560 μM (Hdm2–p53 complex): 16 ± 1%

Compound: Boc–WF–N(CH2)5 [Compound 4b]
- activity against the Hdmx–p53 complex (in words) (Hdmx–p53 complex): measurable inhibition
- % inhibition at 320 μM (Hdmx–p53 complex): 13 ± 1%
